Measured values from US7309701B2, “Pyridazinone derivatives as pharmaceuticals and pharmaceutical compositions containing them” (Sanofi-Aventis Deutschland GmbH, priority 2002, dated 2007).

Biological target: human recombinant GSK-3β (Homo sapiens, UniProt P49841)
Assay: GSK-3β activity, AlphaScreen with primed glycogen synthase substrate peptide
Type: biochemical
Settings: not given
Protocol: GSK-β activity was measured using human recombinant GSK-3β and a primed (pre-phosphorylated) substrate peptide (derived from glycogen synthase and containing the phosphorylation sites 3a, b, and c) on basis of the AlphaScreen technology in 384-well plate format (small volume plate, white, GREINER).

Chain of human recombinant GSK-3β (P49841 whole entry): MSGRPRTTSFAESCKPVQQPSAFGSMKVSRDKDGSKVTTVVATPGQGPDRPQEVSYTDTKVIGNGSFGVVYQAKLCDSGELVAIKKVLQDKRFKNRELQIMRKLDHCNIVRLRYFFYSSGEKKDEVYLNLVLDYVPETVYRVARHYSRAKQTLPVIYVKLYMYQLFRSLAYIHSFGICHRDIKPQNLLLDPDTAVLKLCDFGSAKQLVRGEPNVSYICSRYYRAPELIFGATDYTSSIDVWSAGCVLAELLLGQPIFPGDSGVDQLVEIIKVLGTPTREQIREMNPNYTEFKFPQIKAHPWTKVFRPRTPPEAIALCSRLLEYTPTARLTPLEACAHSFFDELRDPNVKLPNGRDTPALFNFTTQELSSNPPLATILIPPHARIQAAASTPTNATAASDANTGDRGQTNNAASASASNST

| SMILES | IC50 |
| --- | --- |
| O=C(NCc1ccc(Cl)cc1)c1cc(-c2ccc(O)c(F)c2)n[nH]c1=O [Example 183, 6-(3-Fluoro-4-hydroxy-phenyl)-3-oxo-2,3-dihydro-pyridazine-4-carboxylic acid 4-chloro-benzylamide] | 39 nM |
| CCCCNc1nccc(-c2cc(C(=O)NCCCc3cccnc3)c(=O)[nH]n2)n1 [Example 220, 6-(2-Butylamino-pyrimidin-4-yl)-3-oxo-2,3-dihydro-pyridazine-4-carboxylic acid (3-pyridin-3-yl-propyl)-amide] | 36 nM |
| O=C(NCc1ccc(F)cc1F)c1cc(-c2ccncc2)n[nH]c1=O [Example 117, 3-Oxo-6-pyridin-4-yl-2,3-dihydro-pyridazine-4-carboxylic acid 2,4-difluoro-benzylamide;compound withtrifluoro-acetic acid] | 65 nM |

Same assay, conditions: human recombinant GSK-3β, 10 μM ATP, 60 min at room temperature, AlphaScreen; read-out: IC50

| SMILES | IC50 |
| --- | --- |
| CCCCNc1nccc(-c2cc(C(=O)NCc3cccnc3)c(=O)[nH]n2)n1 [Example 219, 6-(2-Butylamino-pyrimidin-4-yl)-3-oxo-2,3-dihydro-pyridazine-4-carboxylic acid(pyridin-3-ylmethyl)-amide] | 29 nM |
| Cc1cc(-c2cc(C(=O)NCc3ccc(Cl)cc3)c(=O)[nH]n2)ccc1O [Example 155] | 10300 nM |
| Cc1cc(-c2cc(C(=O)NCCCc3cccnc3)c(=O)[nH]n2)cc(C)c1O [Example 48, 6-(4-Hydroxy-3,5-dimethyl-phenyl)-3-oxo-2,3-dihydro-pyridazine-4-carboxylic acid (3-pyridin-3-yl-propyl)-amide] | 36 nM |
| CCNc1nccc(-c2cc(C(=O)NCc3ccc(Cl)cc3)c(=O)[nH]n2)n1 [Example 190, 6-(2-Ethylamino-pyrimidin-4-yl)-3-oxo-2,3-dihydro-pyridazine-4-carboxylic acid 4-chloro-benzylamide] | > 1000 nM |
| O=C(NCCCc1cccnc1)c1cc(-c2ccc(O)cc2)n[nH]c1=O [Example 164, 6-(4-Hydroxy-phenyl)-3-oxo-2,3-dihydro-pyridazine-4-carboxylic acid (3-pyridin-3-yl-propyl)-amide] | 7 nM |
| O=C(NCc1ccc(Cl)cc1)c1cc(-c2ccc(O)c(Cl)c2)n[nH]c1=O [Example 180, 6-(3-Chloro-4-hydroxy-phenyl)-3-oxo-2,3-dihydro-pyridazine-4-carboxylic acid 4-chloro-benzylamide] | 227 nM |
| O=C(NCc1ccc(C(F)(F)F)cc1)c1cc(-c2ccncc2)n[nH]c1=O [Example 112, 3-Oxo-6-pyridin-4-yl-2,3-dihydro-pyridazine-4-carboxylic acid 4-trifluoromethyl-benzylamide;compound withtrifluoro-acetic acid] | 123 nM |
| O=C(NCc1ccc(Cl)cc1)c1cc(-c2ccnc(NCCN3CCOCC3)n2)n[nH]c1=O [Example 175, 6-[2-(2-Morpholin-4-yl-ethylamino)-pyrimidin-4-yl]-3-oxo-2,3-dihydro-pyridazine-4-carboxylic acid 4-chloro-benzylamide;compound withtrifluoro-acetic acid] | 17 nM |
| CNc1cc(-c2cc(C(=O)NCc3ccc(Cl)cc3)c(=O)[nH]n2)ccn1 [Example 206, 6-(2-Methylamino-pyridin-4-yl)-3-oxo-2,3-dihydro-pyridazine-4-carboxylic acid 4-chloro-benzylamide] | 30 nM |
| O=C(NCc1ccc(Cl)cc1)c1cc(-c2cc(F)c(O)c(F)c2)n[nH]c1=O [Example 182, 6-(3,5-Difluoro-4-hydroxy-phenyl)-3-oxo-2,3-dihydro-pyridazine-4-carboxylic acid 4-chloro-benzylamide] | 170 nM |
| COc1cc(-c2cc(C(=O)NCc3ccc(C(=O)O)cc3)c(=O)[nH]n2)ccc1O [Example 225, 4-({[6-(4-Hydroxy-3-methoxy-phenyl)-3-oxo-2,3-dihydro-pyridazine-4-carbonyl]-amino}-methyl)-benzoic acid] | 9 nM |
| CCCCNc1nccc(-c2cc(C(=O)NCCCN3CCN(C)CC3)c(=O)[nH]n2)n1 [Example 218, 6-(2-Butylamino-pyrimidin-4-yl)-3-oxo-2,3-dihydro-pyridazine-4-carboxylic acid [3-(4-methyl-piperazin-1-yl)-propyl]-amide;compound withtrifluoro-acetic acid] | 22 nM |
| Cc1cc(-c2cc(C(=O)NCc3ccc(C(=O)O)cc3)c(=O)[nH]n2)cc(C)c1O [Example 32, 4-({[6-(4-Hydroxy-3,5-dimethyl-phenyl)-3-oxo-2,3-dihydro-pyridazine-4-carbonyl]-amino}-methyl)-benzoic acid] | 5 nM |
| O=C(NCc1ccc(Br)cc1)c1cc(-c2ccncc2)n[nH]c1=O [Example 75, 3-Oxo-6-pyridin-4-yl-2,3-dihydro-pyridazine-4-carboxylic acid 4-bromo-benzylamide;compound withtrifluoro-acetic acid] | 380 nM |
| COc1cc(-c2cc(C(=O)NCCCc3cccnc3)c(=O)[nH]n2)ccc1O [Example 49, 6-(4-Hydroxy-3-methoxy-phenyl)-3-oxo-2,3-dihydro-pyridazine-4-carboxylic acid (3-pyridin-3-yl-propyl)-amide] | 1 nM |
| O=C(Nc1ccncc1)c1ccc(CNC(=O)c2cc(-c3ccncc3)n[nH]c2=O)cc1 [Example 156, 3-Oxo-6-pyridin-4-yl-2,3-dihydro-pyridazine-4-carboxylic acid 4-(pyridin-4-ylcarbamoyl)-benzylamide;compound withtrifluoro-acetic acid] | 86 nM |
| C[C@@H](Nc1nccc(-c2cc(C(=O)NCCCc3ccccc3)c(=O)[nH]n2)n1)c1ccccc1 [Example 215, R-3-Oxo-6-[2-(1-phenyl-ethylamino)-pyrimidin-4-yl]-2,3-dihydro-pyridazine-4-carboxylic acid(3-phenyl-propyl)-amide] | 24 nM |
| O=C(NCc1ccc(Cl)cc1F)c1cc(-c2ccncc2)n[nH]c1=O [Example 116, 3-Oxo-6-pyridin-4-yl-2,3-dihydro-pyridazine-4-carboxylic acid 4-chloro-2-fluoro-benzylamide;compound withtrifluoro-acetic acid] | 250 nM |
| COc1cc(-c2cc(C(=O)NCc3ccc(Cl)cc3)c(=O)[nH]n2)ccc1O [Example 41, 6-(4-Hydroxy-3-methoxy-phenyl)-3-oxo-2,3-dihydro-pyridazine-4-carboxylic acid 4-chloro-benzylamide] | 2300 nM |

System: not given
Assay: not given
Settings: not given

| SMILES | melting point |
| --- | --- |
| O=C(NCc1cccc(C(F)(F)F)c1)c1cc(-c2ccncc2)n[nH]c1=O [Example 9, 3-oxo-6-pyridin-4-yl-N-[3-(trifluoromethyl)benzyl]-2,3-dihydropyridazine-4-carboxamide] | 224 °C |
| O=C(NCc1ccc(Cl)cc1Cl)c1cc(-c2ccccc2)n[nH]c1=O [Example 1, N-(2,4-dichlorobenzyl)-3-oxo-6-phenyl-4-yl-2,3-dihydropyridazine-4-carboxamide] | ~ 258 °C |
| O=C(NCCc1ccc(Cl)cc1Cl)c1cc(-c2ccncc2)n[nH]c1=O [Example 6, N-[2-(2,4-dichlorophenyl)ethyl]-3-oxo-6-pyridin-4-yl-2,3-dihydropyridazine-4-carboxamide] | 202 °C |
| O=C(NCc1ccccn1)c1cc(-c2ccncc2)n[nH]c1=O [Example 15, 3-oxo-6-pyridin-4-yl-N-(pyridin-2-ylmethyl)-2,3-dihydropyridazine-4-carboxamide] | 242 °C |
